Experiment in all cases: cells
Holding throughout (parameters): species or system JFCR39 human cancer cell lines; JFCR39 panel growth inhibition, sulforhodamine B total protein after 48 h

In one assay the test system is U251. Conditions: for GI50: Homo sapiens, U-251, 48 h. The method, boiled down:
(§1)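 SRB assay, 48 h drug exposure, JFCR39 panel; RPMI-1640 + 5% FBS, 37°C/5% CO2. Read-out: total cellular protein. GI50 calculated from duplicates.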

A further assay concerns LOX-IMVI. Conditions: 48 h; for GI50: Homo sapiens, LOX IMVI. A digest of the protocol: as §1
In a further assay the test system is NCI-H460. Conditions: for GI50: Homo sapiens, NCI-H460, 48 h. A digest of the protocol: as §1
Another assay has as its system MKN45. Conditions: for GI50: Homo sapiens, MKN-45, 48 h. The method, boiled down: as §1
A further assay has as its system SF-539. As to conditions: for GI50: Homo sapiens, SF-539, 48 h. A digest of the protocol:
as §1

The test system of a further assay is KM-12. As to conditions: for GI50: Homo sapiens, KM12, 48 h. A digest of the protocol:
as §1

The subject of a further assay is HBC-5. Conditions: for GI50: HBC5, 48 h. A digest of the protocol:
as §1

In the next assay the test system is NCI-H226. Conditions: for GI50: Homo sapiens, NCI-H226, 48 h. The method, boiled down: as §1
The next assay concerns DMS273. As to conditions: for GI50: Homo sapiens, DMS-273, 48 h. The method, boiled down: as §1
Another assay deals with SK-OV-3. Conditions: for GI50: Homo sapiens, SK-OV-3, 48 h. The method, boiled down:
as §1

Another assay has as its system RXF-631L. Conditions: 48 h; for GI50: RXF-631L. A digest of the protocol:
as §1

For the next assay, the system named is SNB-78. As to conditions: for GI50: Homo sapiens, SNB-78, 48 h. The method, boiled down:
as §1

For the next assay, the system named is SF-268. Conditions: for GI50: Homo sapiens, SF-268, 48 h. The method, boiled down: as §1
In a further assay the test system is OVCAR-4. As to conditions: for GI50: Homo sapiens, OVCAR-4, 48 h. A digest of the protocol:
as §1

The subject of a further assay is MKN1. As to conditions: for GI50: Homo sapiens, MKN-1, 48 h. A digest of the protocol:
as §1

Another assay deals with HCT-15. Conditions: for GI50: Homo sapiens, HCT-15, 48 h. A digest of the protocol: as §1
For another assay, the system named is DMS114. As to conditions: for GI50: Homo sapiens, DMS-114, 48 h. A digest of the protocol:
as §1

The subject of the next assay is A549. Conditions: for GI50: Homo sapiens, A549, 48 h. The method, boiled down: as §1
A further assay deals with MDA-MB-231. As to conditions: for GI50: Homo sapiens, MDA-MB-231, 48 h. The method, boiled down:
as §1

The mark [1] stands for this setting: 48 h, inhibitor, Log GI50, 48 h.

As to `C=C1CCC2C(C)(CCC=C(C)C)C(O)CCC2(C)C1Cc1c(OC)oc(CO)c(C)c1=O` (stereo not shown) [Compound 16], the “Log GI50” value with U251 (setting [1]) is -4.880 M; in the assay with LOX-IMVI (inhibitor, Log GI50, 48 h), -5.224 M; in the assay on NCI-H460 (setting [1]) it was -6.167 M; in the assay on MKN45 (setting [1]) it was -4.853 M; in the assay on SF-539 (setting [1]) it was -4.953 M; in the assay with KM-12 (setting [1]) it was -4.862 M. Moreover, the “Log GI50” value in the assay on HBC-5 (setting [1]) was -4.986 M; with NCI-H226 (setting [1]), -5.269 M; in the assay with DMS273 (setting [1]) it was -5.822 M; in the assay with SK-OV-3 (setting [1]), -4.993 M; with RXF-631L (inhibitor, Log GI50, 48 h) it was -4.839 M; with SNB-78 (setting [1]) it was -4.939 M. The “Log GI50” value in the assay on SF-268 (setting [1]) is -4.944 M; with OVCAR-4 (setting [1]), -4.966 M; with MKN1 (setting [1]), -4.787 M; in the assay with HCT-15 (setting [1]), -5.220 M; with DMS114 (setting [1]), -6.139 M; in the assay with A549 (setting [1]) it was -5.056 M. Besides, the “Log GI50” value in the assay with MDA-MB-231 (setting [1]) is recorded as -4.882 M.
As to `C=C1CC[C@H]2[C@]3(C)C[C@@H](C=C(C)C)O[C@H]3CC[C@]2(C)[C@@H]1Cc1c(OC)oc(CO)c(C)c1=O` [Compound 17], the GI50 – broadly, the concentration giving 50% growth inhibition – in the assay on U251 was 14.3 µM; in the assay on LOX-IMVI, 10.4 µM; in the assay on NCI-H460 it was 0.0916 µM; in the assay on MKN45, 14 µM; with SF-539, 12.2 µM; with KM-12, 14.5 µM. For the same molecule, the 50% growth inhibitory concentration (GI50) in the assay with HBC-5 was 11.8 µM; with NCI-H226 it was 14 µM; in the assay with DMS273, 0.713 µM; in the assay with SK-OV-3, 12.1 µM; in the assay on RXF-631L it was 14.4 µM; in the assay on SNB-78, 14.2 µM. The GI50 in the assay on SF-268 was 13.2 µM; in the assay on OVCAR-4, 12.2 µM; in the assay on MKN1 it was 19.3 µM; with HCT-15, 0.942 µM; in the assay with DMS114, 0.0701 µM; in the assay on A549, 12.3 µM. For the same molecule, halving of growth in the assay on MDA-MB-231 (GI50) required 13.9 µM.
`C=C1CC[C@@H]2[C@](C)(CC[C@H]3O[C@H](C=C(C)C)C[C@@]23C)[C@@H]1Cc1c(OC)oc(CO)c(C)c1=O` [Compound 20]: the GI50 is 13.8 µM with U251; 10.1 µM in the assay on LOX-IMVI; 0.0811 µM in the assay on NCI-H460; 14.5 µM in the assay with MKN45; 12.3 µM with SF-539; 14.8 µM in the assay with KM-12. Besides, the GI50 in the assay on HBC-5 is 12.4 µM; in the assay on NCI-H226, 13.6 µM; with DMS273, 0.0893 µM; with SK-OV-3 it was 13.3 µM; in the assay with RXF-631L, 17 µM; in the assay with SNB-78 it was 14 µM. The GI50 was 12.7 µM in the assay on SF-268; 11.9 µM in the assay with OVCAR-4; 14.6 µM in the assay on MKN1; 10.1 µM in the assay with HCT-15; 0.0476 µM with DMS114; 11.4 µM with A549. In the assay with MDA-MB-231, this molecule gave a GI50 of 13.1 µM.
Turning to `C=C1CC[C@@H]2[C@](C)(CC[C@H]3O[C@H](C=C(C)C)C[C@@]23C)[C@@H]1Cc1c(OC)oc(CO)c(C(=O)OC)c1=O` [Compound 21], the GI50 in the assay with U251 was 17.5 µM; with LOX-IMVI, 15.1 µM; in the assay with NCI-H460, 12.1 µM; in the assay on MKN45 it was 16.2 µM; in the assay with SF-539 it was 18.4 µM; in the assay on KM-12, 18.2 µM. Further, the GI50 was 14.7 µM in the assay with HBC-5; 18.2 µM in the assay with NCI-H226; 16.6 µM with DMS273; 17.3 µM in the assay on SK-OV-3; 17.3 µM in the assay on RXF-631L; 18.7 µM with SNB-78. Further, the GI50 with SF-268 is 19.5 µM; in the assay on OVCAR-4 it was 15.1 µM; with MKN1 it was 18.5 µM; in the assay with HCT-15, 17.6 µM; in the assay on DMS114 it was 4.93 µM; in the assay on A549, 18.5 µM. The molecule also had a GI50 in the assay with MDA-MB-231 of 17.8 µM.

The values above are taken from paper PMC7156458, “Synthetic biology based construction of biological activity-related library of fungal decalin-containing diterpenoid pyrones” (Nature Communications, 2020).
